Where no end group is shown, it is not given here.
Tests used:
[1] = HPLC retention time as a function of peptide hydrophobicity; type: physicochemical; conditions: chromatographic, Polaris 5 C18-A reverse phase, 0.1% TFA water / 0.1% TFA acetonitrile gradient, 30 min, 300 μM peptide
Summary of the method: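 Reverse-phase C18 HPLC used water and acetonitrile, each with 0.1% (v/v) TFA, under a constant gradient run for 30 min after injection. Samples were 300 μM peptide in acetonitrile–water (1:4).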

[2] = system: Macrococcus caseolyticus (MC) ATCC 13548; type: cell-based
Summary of the method: (§1)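 Overnight LB cultures, 37 °C → mid-log → 5 × 10^5 CFU/mL; 1:1 with serially diluted peptides, o/n 37 °C, ambient air. MIC = lowest conc. inhibiting growth (plate reader). n = 3, mean reported.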

[3] = system: Sphingomonas paucimobilis (SP); type: cell-based
Summary of the method: as §1

[4] = system: Roseomonas mucosa (RM) ATCC BAA-692; type: cell-based
Summary of the method: as §1

[5] = system: Pseudomonas aeruginosa (PA) ATCC 39327; type: cell-based; conditions: ATCC 39327
Summary of the method: as §1

[6] = system: Bacillus licheniformis (BL) ATCC 14580; type: cell-based; conditions: ATCC 14580
Summary of the method: as §1

[7] = system: Dermacoccus nishinomiyaensis (DN) ATCC 29093; type: cell-based
Summary of the method: as §1

[8] = system: Micrococcus yunnanensis (MY) ATCC 12698; type: cell-based
Summary of the method: as §1

[9] = system: Kocuria rosea (KR) ATCC 186; type: cell-based
Summary of the method: as §1

[10] = system: microbial clusters MY, KR, DN, MC, BL, RM, SP, PA, HR; experiment: Broad-spectrum activity score (in-house scoring matrix); conditions: sum over 9 microbial clusters: (+) = 1, (X) = 0, Fuel x = -1
Summary of the method: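 Each peptide is scored per microbial cluster from its MIC/efficacy with fuel co-incubation: +1 = active in the fuel environment, 0 = no activity in the desired range (microbial proliferation), −1 = no activity in the fuel environment. The score is built from these per-cluster points.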

[11] = system: Sphingomonas paucimobilis (SP); experiment: Effectiveness of peptides on spiked fuel samples (aqueous layer); type: cell-based; set-up: key: (+) =1 (implying peptide activity in fuel environment); (X) = 0 (implying no activity in the desired range, indicated by microbial proliferation); Fuel x = -1(implying no activity in fuel environment); conditions: initial screening in spiked fuel
Summary of the method: (§2)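 Fuel:BH 1:1 v/v, cells seeded in bottom aqueous phase; peptide at MIC added to aqueous layer; aerobic, 30 °C, 30 d; plating of aqueous + fuel layers d7/14/21/30 for viable counts.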

[12] = system: Roseomonas mucosa (RM); experiment: as above; type: cell-based; set-up: key: (+) =1 (implying peptide activity in fuel environment); (X) = 0 (implying no activity in the desired range, indicated by microbial proliferation); Fuel x = -1(implying no activity in fuel environment); conditions: initial screening in spiked fuel
Summary of the method: as §2

[13] = system: Macrococcus caseolyticus (MC); experiment: as above; type: cell-based; set-up: key: (+) =1 (implying peptide activity in fuel environment); (X) = 0 (implying no activity in the desired range, indicated by microbial proliferation); Fuel x = -1(implying no activity in fuel environment); conditions: initial screening in spiked fuel
Summary of the method: as §2

[14] = system: Pseudomonas aeruginosa (PA); experiment: as above; type: cell-based; set-up: key: (+) =1 (implying peptide activity in fuel environment); (X) = 0 (implying no activity in the desired range, indicated by microbial proliferation); Fuel x = -1(implying no activity in fuel environment); conditions: initial screening in spiked fuel
Summary of the method: as §2

[15] = system: Dermacoccus nishinomiyaensis (DN); experiment: as above; type: cell-based; set-up: key: (+) =1 (implying peptide activity in fuel environment); (X) = 0 (implying no activity in the desired range, indicated by microbial proliferation); Fuel x = -1(implying no activity in fuel environment); conditions: initial screening in spiked fuel
Summary of the method: as §2

[16] = system: Micrococcus yunnanensis (MY); experiment: as above; type: cell-based; set-up: key: (+) =1 (implying peptide activity in fuel environment); (X) = 0 (implying no activity in the desired range, indicated by microbial proliferation); Fuel x = -1(implying no activity in fuel environment); conditions: initial screening in spiked fuel
Summary of the method: as §2

[17] = system: Bacillus licheniformis (BL); experiment: as above; type: cell-based; set-up: key: (+) =1 (implying peptide activity in fuel environment); (X) = 0 (implying no activity in the desired range, indicated by microbial proliferation); Fuel x = -1(implying no activity in fuel environment); conditions: initial screening in spiked fuel
Summary of the method: as §2

[18] = system: Kocuria rosea (KR); experiment: as above; type: cell-based; set-up: key: (+) =1 (implying peptide activity in fuel environment); (X) = 0 (implying no activity in the desired range, indicated by microbial proliferation); Fuel x = -1(implying no activity in fuel environment); conditions: initial screening in spiked fuel
Summary of the method: as §2

[19] = system: Hormoconis resinae (HR); experiment: as above; type: cell-based; set-up: key: (+) =1 (implying peptide activity in fuel environment); (X) = 0 (implying no activity in the desired range, indicated by microbial proliferation); Fuel x = -1(implying no activity in fuel environment); conditions: initial screening in spiked fuel
Summary of the method: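 Filter-sterilized fuel was mixed 1:1 (v/v) with BH medium, the organism was inoculated into the bottom aqueous phase, and peptides were added there at their MICs. Cultures were held aerobically at 30 °C for 30 days, with both layers plated on LBA at 7, 14, 21 and 30 days for viability.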

[20] = system: Sheep red blood cells (RBCs); experiment: Hemolysis assay; type: cell-based
Method: The RBCs were centrifuged at 1000g for 15 min at 4 °C to remove the buffy coat and washed 3 times with PBS. 100 μL of 4% (v/v) RBC was suspended in PBS and added into sterilized 96-well plates. 100 μL of peptide solution was added to the suspension of RBCs by serial dilution starting from 200 μM to […] and incubated overnight at 37 °C. Sample absorbance at 545 nm was measured to determine hemoglobin release after centrifuging the plate at 600 g for 10 min. The percentage of cell lysis was calculated using the following formula (eq ). , 1 %lysis=OD545(test)−OD545(blank)/OD545(totallysis)−OD545(blank)×100

With ILPWKWPWWPFRR [P4] the “R t, retention time of peptide on HPLC column as a function of peptide hydrophobicity” value [1] was 12.891 min, the MIC [2] was 0.9 µM and the MIC [3] was 0.9 µM. It also gave an MIC [4] of 3.9 µM, an MIC [5] of 7.8 µM and an MIC [6] of 0.9 µM. The MIC [7] was 0.9 µM, the MIC [8] was 0.9 µM and the MIC [9] was 0.9 µM. For the same sequence, the Score [10] was 7, the “activity considering MIC value/efficacy upon fuel co-incubation” value [11] was “+” and the “activity considering MIC value/efficacy upon fuel co-incubation” value [12] was “+”. For the same sequence, the “activity considering MIC value/efficacy upon fuel co-incubation” value [13] was “+”, the “activity considering MIC value/efficacy upon fuel co-incubation” value [14] was “X” and the “activity considering MIC value/efficacy upon fuel co-incubation” value [15] was “+”. For the same sequence, the “activity considering MIC value/efficacy upon fuel co-incubation” value [16] was “+”, the “activity considering MIC value/efficacy upon fuel co-incubation” value [17] was “+” and the “activity considering MIC value/efficacy upon fuel co-incubation” value [18] was “+”. For the same sequence, the “activity considering MIC value/efficacy upon fuel co-incubation” value [19] was “X” and the “HL50, conc. to reach 50% cell lysis” value [20] was 10 µM.

From publication PMC12442081, “Combating Fuel Biocontamination: Tailored Antimicrobial Peptides and an Innovative Delivery Strategy” (ACS Applied Bio Materials, 2025)
